# Measurements: ChEMBL document CHEMBL3804823, “Inhibitors of secreted phospholipase A2 suppress the release of PGE2 in renal mesangial cells” (Bioorg Med Chem, 2016)
# Activity calls are given as the source filed them. The calls are words filed in the database; no cut-off is given here.
# Legend:
# Format in all cases: cell-based
# [1] = organism: Rattus norvegicus; test: Inhibition of secretory phospholipase A2 in rat renal mesangial cells assessed as suppression of IL-1beta/forskolin stimulated PGE2 formation preincubated for 20 mins prior to IL-1beta/forskolin challenge at 1 uM measured after 24 hrs by PGE2-specific ELISA
# [2] = organism: Rattus norvegicus; test: Inhibition of secretory phospholipase A2 in rat renal mesangial cells assessed as suppression of IL-1beta/forskolin stimulated PGE2 formation preincubated for 20 mins prior to IL-1beta/forskolin challenge at 3 and 10 uM measured after 24 hrs by PGE2-specific ELISA
# [3] = organism: Rattus norvegicus; test: Inhibition of secretory phospholipase A2 in rat renal mesangial cells assessed as suppression of IL-1beta/forskolin stimulated PGE2 formation preincubated for 20 mins prior to IL-1beta/forskolin challenge at 1 to 10 uM measured after 24 hrs by PGE2-specific ELISA
# [4] = organism: Rattus norvegicus; test: Inhibition of secretory phospholipase A2 in rat renal mesangial cells assessed as suppression of IL-1beta/forskolin stimulated PGE2 formation preincubated for 20 mins prior to IL-1beta/forskolin challenge at 10 uM measured after 24 hrs by PGE2-specific ELISA
smiles,measurement,setting,value
CC(C)[C@H](NC(=O)C(=O)c1ccc2ccccc2c1)C(=O)O,inhibition,[1],inactive
same,inhibition,[2],Active
CCCC[C@H](CCC(=O)O)NC(=O)CCCCNC(=O)c1ccccc1,inhibition,[1],inactive
same,inhibition,[2],Active
CC(C)[C@H](NC(=O)C(=O)CCCCc1ccccc1)C(=O)O,inhibition,[3],Active
CCCCCCCCCCCCCCC(=O)C(=O)N[C@@H](CC(C)C)C(=O)O,inhibition,[3],Active
CC(C)[C@H](NC(=O)C(=O)CCCCc1ccc2ccccc2c1)C(=O)O,inhibition,[3],Active
CCCC[C@H](CCC(=O)O)NC(=O)CCCCC(=O)Nc1ccccc1,inhibition,[1],inactive
same,inhibition,[2],Active
O=C(CCCCc1ccccc1)C(F)(F)C(F)(F)F,inhibition,[4],inactive
CCCCCCCCCCCCCCC(=O)C(=O)N[C@@H](CCCC)CCCC(=O)O,inhibition,[4],inactive
CCCC[C@H](CCC(=O)O)NC(=O)CCCCCOc1ccccc1,inhibition,[1],inactive
same,inhibition,[2],Active
CCCCCCCCCCCCCCCCC(=O)C(=O)N[C@H](C(=O)O)C(C)C,inhibition,[3],Active
O=C(O)CC[C@@H](Cc1ccc(OCc2ccccc2)cc1)NC(=O)CCCCCCc1ccccc1,inhibition,[3],Active
CCCCCCCCCCCCCCC(=O)C(=O)NCCCC(=O)OCC,inhibition,[4],inactive
CCCC[C@H](CCC(=O)O)NC(=O)CCCCCCc1ccccc1,inhibition,[3],Active
CCCC[C@H](CCC(=O)O)NC(=O)CCCC(=O)NCc1ccccc1,inhibition,[3],Active
CCCC[C@H](CCC(=O)O)NC(=O)CCCCNC(=O)c1ccc(OC)cc1,inhibition,[3],Active
